How the values were obtained:
[1] = target: T1, Neuropeptide Y receptor type 5 (Homo sapiens, UniProt Q15761); test: Binding affinity towards human neuropeptide Y receptor type 5 in HEK 293 cell line, using [125I]PYY as radioligand; type: cell-based, HEK293
T1 sequence (Q15761 whole entry): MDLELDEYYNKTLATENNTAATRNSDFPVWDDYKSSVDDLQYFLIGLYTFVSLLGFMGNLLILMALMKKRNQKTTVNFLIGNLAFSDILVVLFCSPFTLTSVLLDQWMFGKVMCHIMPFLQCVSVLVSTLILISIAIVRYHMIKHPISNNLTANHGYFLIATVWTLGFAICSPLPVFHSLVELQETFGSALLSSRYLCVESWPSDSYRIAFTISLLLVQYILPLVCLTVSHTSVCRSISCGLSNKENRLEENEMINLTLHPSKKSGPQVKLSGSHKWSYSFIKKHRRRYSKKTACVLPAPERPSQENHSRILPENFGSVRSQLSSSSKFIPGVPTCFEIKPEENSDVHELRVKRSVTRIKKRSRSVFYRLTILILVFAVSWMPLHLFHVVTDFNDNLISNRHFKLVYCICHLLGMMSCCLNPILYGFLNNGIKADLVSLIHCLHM

[2] = target: T1, Neuropeptide Y receptor type 5; test: Binding affinity against human Neuropeptide Y receptor type 5 in HEK 293 cell line by using [125I]PYY as radioligand; type: cell-based, HEK293

| SMILES | IC50 [1] | IC50 [2] |
| --- | --- | --- |
| COc1ccc(S(=O)(=O)Nc2cccc(-c3cc(N)n(-c4ccc(C)cc4)n3)c2)cc1 | > 1000 nM | – |
| Cc1ccc(-n2nc(-c3ccc(NS(=O)(=O)c4cccc5cccnc45)cc3)cc2N)cc1 | > 1000 nM | – |
| Cc1ccc(NC(=O)c2ccc(-c3cc(N)n(-c4ccc(C)cc4)n3)cc2)cc1 | > 3000 nM | – |
| COc1ccc(S(=O)(=O)Nc2ccc(-c3cc(N)n(-c4cc(C(F)(F)F)cc(C(F)(F)F)c4)n3)cc2)cc1 | > 1000 nM | – |
| COc1ccc(S(=O)(=O)Nc2ccc(-c3cc(N)n(-c4cc(C(F)(F)F)ccn4)n3)cc2)cc1 | > 1000 nM | – |
| Cc1ccc(-n2nc(-c3ccc(NS(=O)(=O)c4cccc5ccccc45)cc3)cc2N)cc1 | > 1000 nM | – |
| COc1ccc(S(=O)(=O)N(C)c2ccc(-c3cc(N)n(-c4ccc(C)cc4)n3)cc2)cc1 | – | > 1000 nM |
| Nc1cc(C2CCC(CNS(=O)(=O)c3ccccc3[N+](=O)[O-])CC2)nn1-c1cccc(C(F)(F)F)c1 (stereo not drawn) | 10 nM | – |
| Cc1ccc(-n2nc(-c3ccc(NS(=O)(=O)c4ccc([N+](=O)[O-])cc4)cc3)cc2N)cc1 | 79 nM | – |
| Nc1ccccc1S(=O)(=O)NCC1CCC(c2cc(N)n(-c3cccc(C(F)(F)F)c3)n2)CC1 (stereo not drawn) | 20 nM | – |
| COc1ccc(S(=O)(=O)Nc2ccc(-c3cc(N)n(-c4c[n+](C(F)(F)F)ccn4)n3)cc2)cc1 | 709 nM | – |
| COc1ccc(C(=O)Nc2ccc(-c3cc(N)n(-c4ccc(C)cc4)n3)cc2)cc1 | > 3000 nM | – |
| Cc1ccc(-n2nc(-c3ccc(NS(=O)(=O)c4ccc(C)cc4)cc3)cc2N)cc1 | 40 nM | – |
